{"source": "patent US8211912B2", "about": "“Compositions and methods for effecting NAD+ levels using a nicotinamide phosphoribosyl tranferase inhibitor” (Gemin X Pharmaceuticals Canada, priority 2007, dated 2012)", "key": {"[1]": {"system": "DMS-114 human small cell lung carcinoma cells", "experiment": "Sensitization to DNA damaging chemotherapeutic agents, relative ATP viability, 3 days", "format": "cell-based", "settings": "0.75 nM Compound 1 alone, 3 days; one value per experiment series (row agent); 0.00075 µM", "experimental": "Cells were plated in logarithmic growth phase at 500-20,000 cells per well in 96-well clear bottom plates (Corning; Corning, N.Y.) and cultured for 14 to 16 hours prior to the start of drug treatment. Serial dilutions of Compound 2 and Compound 1 were made in DMSO, diluted 1:50 in RPMI-1640 (Hyclone; Logan, Utah) and then added to tissue culture media at a final concentration of 0.2% DMSO. […] Relative ATP levels were determined by the bioluminescent measuring of cellular ATP levels in each culture well with the ViaLight-HS High Sensitivity Cytotoxicity and Cell Proliferation BioAssay Kit (Cambrex Bioproducts, Cat. No. LT07-311; Charles City, Iowa) according to manufacturer's instructions. Briefly, a cell permeabilizing reagent was added to each culture well in media at the time of viability determination, allowing free ATP to be released from viable cells in the culture. Addition of luciferase to the mixture catalyzes the release of light proportional to the amount of free ATP present, which can then be quantified in a Centro LB 960 luminometer (EG&G Berthold; Oak Ridge, Tenn.); the level of ATP is generally directly proportional to the viability of the cells.\nSigmoidal dose response curves were then generated using non-linear regression analysis of variable slope by Prism Version 4.00 for Windows (GraphPad Software, Inc.; San Diego, Calif.) and IC50 values calculated.\nThe IC50 values for the treatment with the DNA damaging agent were calculated relative to control cells that were treated with DMSO only."}, "[2]": {"system": "HeLa cells transfected with pcFLAG-PNC1", "experiment": "Compound 1 cytotoxicity in cells overexpressing yeast PNC1, ViaLight 72 h", "settings": "pcFLAG-PNC1 vs pcDNA3, 72 h ViaLight", "protocol": "Viability was measured after 72 hours by ViaLight assay. […] Each point represents the mean and error bars the SD of triplicate samples. […] The concentration of nicotinamide in RPMI 1640 media was […]. HeLa cells were transiently transfected with vector (pcDNA3) or a plasmid expressing a flag-tagged yeast PNC1 gene (pcFLAG-PNC1). […] Relative viability was assessed after 72 hours by ViaLight assay."}, "HCT-116 (Colon)": {"system": "HCT-116 (Colon)", "experiment": "Cell viability assay (72 h, ViaLight, relative ATP levels)", "format": "cell-based", "protocol": "(§1) IC50 value for the compound was determined in IM-9 and HCT-116 cells by ViaLight essay as described supra."}, "[3]": {"system": "FaDu cells (human hypopharyngeal squamous cancer)", "experiment": "Clonogenic survival with radiation therapy", "format": "cell-based", "settings": "Compound 1 10 nM for 24 hours prior to 0-10 Gy", "protocol": "FaDu cells (human hypopharyngeal squamous cancer) were obtained from American Type Culture Collection (Manassas, Va.) and cultured according to specifications. FaDu cells were seeded in 96-well plates at densities of 5,000 per well and incubated overnight at 37° C. to allow for cell attachment.\nCells were irradiated at room temperature using a ^137Cs unit (Gamma-cell 40 Extractor; Nordion International, Inc.; Ontario, Canada) at a dose rate of about 1.1 Gy/min. The cells were then administered 0, 2, 4, 6, 8, or 10 Gy of radiation. About 48 hours after radiation therapy, the drug-containing medium was replaced with fresh growth medium and the plates were incubated at 37° C. Nine days after seeding, colonies were fixed in 70% ethanol, stained with 10% methylene blue, and colonies of ≧50 cells were counted. The surviving fraction was determined as the ratio of the number of colonies in the treated sample to that of the non-treated control sample. Eight wells were set up for each condition and the experiment was performed three times and all data are reported as mean±SE.\nThus, Compound 1 sensitizes the head and neck squamous tumor forming cells to radiation therapy."}, "[4]": {"system": "C666-1 (human undifferentiated nasopharyngeal cancer) cells", "experiment": "Cell viability assay with radiation therapy", "format": "cell-based", "settings": "increasing concentrations of Compound 1, 24 hours prior to radiation therapy"}, "IM-9 (Multiple myeloma)": {"system": "IM-9 (Multiple myeloma)", "experiment": "Cell viability assay (72 h, ViaLight, relative ATP levels)", "format": "cell-based, human", "protocol": "as §1"}, "human NMPRT": {"target": "human NMPRT (Homo sapiens, UniProt P43490)", "sequence (P43490 whole entry)": "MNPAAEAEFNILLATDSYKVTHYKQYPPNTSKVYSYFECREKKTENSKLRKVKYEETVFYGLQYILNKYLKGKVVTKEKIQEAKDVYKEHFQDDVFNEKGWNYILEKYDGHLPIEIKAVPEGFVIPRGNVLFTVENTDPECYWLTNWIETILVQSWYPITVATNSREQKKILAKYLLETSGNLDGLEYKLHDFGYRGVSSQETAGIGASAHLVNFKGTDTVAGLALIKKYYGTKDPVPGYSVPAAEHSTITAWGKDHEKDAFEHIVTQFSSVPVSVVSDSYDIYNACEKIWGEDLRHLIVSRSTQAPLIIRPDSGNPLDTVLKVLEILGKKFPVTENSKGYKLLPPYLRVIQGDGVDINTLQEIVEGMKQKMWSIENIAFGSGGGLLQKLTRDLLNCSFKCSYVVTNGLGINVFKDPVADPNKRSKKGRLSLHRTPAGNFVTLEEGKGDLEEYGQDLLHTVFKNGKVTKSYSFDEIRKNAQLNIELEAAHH", "experiment": "Recombinant NMPRT coupled-enzyme fluorescence assay", "format": "biochemical", "design": "made in house; host or cells: E. coli BL21(DE3)pLysS", "settings": "two independent experiments; Cheng-Prusoff; His-Flag tagged recombinant NMPRT", "protocol": "Human NMPRT cDNA (Origene; Rockville, Md.) was cloned into the pET151 vector (Invitrogen; Carlsbad, Calif.). The resulting construct encodes a recombinant NMPRT protein with hexahistidine and FLAG epitope tags at the NH2-terminus. Four liters of BL21(DE3)pLysS bacteria (Invitrogen; Carlsbad, Calif.) at O.D. ˜0.6 in LB media were induced to express the NMPRT protein with 200 μM IPTG (Roche Diagnostics; Mannheim, Germany) for 3.5 hours with shaking (250 rpm) at 37° C. The bacterial cells were harvested by centrifugation at 6,000 g for 15 minutes at 4° C., the supernatant was discarded and the cells frozen at −20° C. […] The protein concentration was determined by Bradford assay (Bio-Rad; Hercules, Calif.).\nThe activity of recombinant NMPRT was assessed using a coupled-enzyme fluorescence assay based on the quantitation of NAD^+. […] Fluorescence was measured using a Tecan Safire plate reader (Tecan-US; Durham, N.C.) with an excitation wavelength of 560 nm and emission wavelength of 590 nm. The Km for nicotinamide was determined for every preparation of the enzyme and a titration of NAD^+ was run with every assay to ensure that measurements were within the linear range. […] The Ki was calculated using Prism version 4.0 (Graphpad Software, Inc; San Diego, Calif.) and the Cheng-Prusoff Equation. […]\nas §1"}}, "note": "Values joined by “and” are separate entries in the source; they are usually repeats but may differ in a detail not shown here. Equal values may be shown once."}
{"substance": "4-[N′-cyano-N″-(6-(4-chlorophenoxy)-hexyl)-N-guanidino]-pyridine [Compound 1]", "values": [{"measurement": "Percent viability of DMS-114 cells, 0.75 nM Compound 1 (no DNA damaging chemotherapeutic agent)", "setting": "[1]", "result": "47.7 ± 12% and 61.9 ± 16% and 57.9% and 53.20 ± 9.1%"}, {"measurement": "Effect of yeast PNC1 overexpression on Compound 1 cytotoxicity", "setting": "[2]", "result": "rescued"}, {"measurement": "IC50", "setting": "HCT-116 (Colon)", "result": "2.3 ± 0.64", "unit": "nM"}, {"measurement": "Survival of FaDu cells with radiation therapy", "setting": "[3]", "result": "reduces survival of FaDu cells compared to radiation therapy alone"}, {"measurement": "Cytotoxicity with radiation therapy", "setting": "[4]", "result": "higher level of cytotoxicity and an enhanced anticancer activity in comparison to radiation therapy alone"}, {"measurement": "IC50", "setting": "IM-9 (Multiple myeloma)", "result": "3.33 ± 0.66", "unit": "nM"}, {"measurement": "Ki", "setting": "human NMPRT", "result": 1, "unit": "nM"}]}
